Results reported in ChEMBL document CHEMBL1127249, “Design, structure activity and x-ray crystallographic studies of pseudosymmetrical nonpeptidyl HIV-1 protease inhibitors” (Bioorg Med Chem Lett, 1994).

Tests used:
[1] = target: Human immunodeficiency virus type 1 protease (Human immunodeficiency virus 1, UniProt Q72874); test: Compound was tested for inhibitory activity against recombinant HIV-1 protease using 125 I-SPA (scintillation proximity assay)
[2] = test system: Human immunodeficiency virus 1; test: Antiviral activity against HIV-1; assay type: functional, organism-based

| SMILES | IC50 [1] [nM] | IC50 [2] [nM] |
| --- | --- | --- |
| CC(=O)N[C@H]1CCCC[C@@H]1NC(=O)[C@H](Cc1ccccc1)CC(O)C[C@@H](Cc1ccccc1)C(=O)N[C@H]1CCCC[C@@H]1NC(C)=O | 3000 |  |
| O=C(N[C@H]1CCCC[C@@H]1NC(=O)[C@H](Cc1ccccc1)CC(O)C[C@@H](Cc1ccccc1)C(=O)N[C@H]1CCCC[C@@H]1NC(=O)c1ccncc1)c1ccncc1 | 350 | > 20000 |
| O=C(N[C@H]1CCCC[C@@H]1NC(=O)[C@H](Cc1ccccc1)CC(O)C[C@@H](Cc1ccccc1)C(=O)N[C@H]1CCCC[C@@H]1NC(=O)c1ccccn1)c1ccccn1 | 400 | > 20000 |
| O=C(N[C@H]1CCCC[C@@H]1NC(=O)[C@H](Cc1ccccc1)CC(O)C[C@@H](Cc1ccccc1)C(=O)N[C@H]1CCCC[C@@H]1NC(=O)c1cccnc1)c1cccnc1 | 600 |  |
| CC(C)(C)OC(=O)N[C@H]1CCCC[C@@H]1NC(=O)[C@H](Cc1ccccc1)CC(O)C[C@@H](Cc1ccccc1)C(=O)N[C@H]1CCCC[C@@H]1NC(=O)OC(C)(C)C | > 10000 |  |
| O=C(N[C@H]1CCCC[C@@H]1NC(=O)[C@H](Cc1ccccc1)CC(O)C[C@@H](Cc1ccccc1)C(=O)N[C@H]1CCCC[C@@H]1NC(=O)c1ccc2ccccc2n1)c1ccc2ccccc2n1 | 40 | 2000 |
| O=C(N[C@H]1CCCC[C@@H]1NC(=O)[C@H](Cc1ccccc1)CC(O)C[C@@H](Cc1ccccc1)C(=O)N[C@H]1CCCC[C@@H]1NC(=O)c1cc2ccccc2cn1)c1cc2ccccc2cn1 | 45 |  |
